Measurements as given in publication PMC12040169 (PLOS Biology, 2025).

Experiment: in vitro
Settings: human, hela cells, % viability

Structure (SMILES) | viability at 28.5 h, 10 µM [%]
NC(=O)C1(N2CCCCC2)CCN(CC(=O)Nc2ccc(Oc3ccccc3)cc2)CC1 [CBK265774] | 107
NC(=O)c1c(NC(=O)c2ccc(COc3cc(Cl)ccc3Cl)o2)sc2c1CCCC2 [CBK265775] | 85.4
CCOc1cc(C2CC(=O)NC(SCC(=O)Nc3cccc(C(F)(F)F)c3)=C2C#N)ccc1O (centres unmarked) [CBK265778] | 104
Cn1nc(-c2ccc(N3CCCCC3)c(NC(=O)COc3ccccc3)c2)c2ccccc2c1=O [CBK265780] | 97.3
CCn1c(SCC(=O)N2CCN(c3ccccc3)CC2)nnc1-c1ccc(N)cc1 [CBK265786] | 103
O=C1CNC(=O)N1CC(O)Cn1c2ccc(Cl)cc2c2cc(Cl)ccc21 (centres unmarked) [CBK265792] | 90.1
N#CC1=C(SCC(=O)Nc2cccc3ccccc23)NC(=O)CC1c1ccco1 (centres unmarked) [CBK265793] | 101
CC(Sc1nc(-c2ccccc2)nc2ccccc12)C(=O)Nc1ccccc1C(F)(F)F (centres unmarked) [CBK265795] | 103
O=S1(=O)CC(NCc2ccccc2)C(Nc2ccccc2)C1 (centres unmarked) [CBK265797] | 91.7
CCOc1nc2c(c(C(F)(F)F)n1)CC(C)C/C2=C\c1ccccc1 (centres unmarked) [CBK265800] | 94.8
NS(=O)(=O)c1ccc(CNC(=S)NC2CCCC2)cc1 [CBK265802] | 97.8
COc1ccc(CCNc2ncnc3c2cnn3-c2ccc(Cl)cc2)cc1OC [CBK265804] | 105
CS(=O)(=O)N(CC(=O)O)Cc1ccccc1 [CBK265805] | 90.1
CC(C)(C)NC(=O)CNS(=O)(=O)c1ccccc1 [CBK265807] | 85.5
CCn1cc(C(=O)O)c(=O)c2cc(F)c(N3CCN(C(=S)Nc4cccc5ccccc45)CC3)cc21 [CBK265809] | 97.4
O=C(O)c1cccc(-n2c(S)nnc2-c2ccc3ccccc3n2)c1 [CBK265810] | 103
Cc1nn(Cc2cccc(C(=O)Nc3ccc(S(=O)(=O)N4CCCCC4)cc3)c2)c(C)c1Cl [CBK265815] | 81.9
Cc1ccccc1OCc1nnc(SCC(=O)NC2CCCCC2)n1C [CBK265817] | 82.5
Sc1nnc(-c2ccncc2)n1CCc1ccccc1 [CBK265819] | 108
COc1ccc([N+](=O)[O-])cc1CSc1nnc(COc2ccccc2C)n1C [CBK265820] | 93
CC(Sc1nnc2[nH]c3ccccc3n12)C(=O)O (centres unmarked) [CBK265822] | 99.7

Structure (SMILES) | viability at 28.5 h, 10 µM [%]
CCn1cc(C(=O)O)c(=O)c2cc(F)c(N3CCN(C(=S)Nc4cc(OC)ccc4OC)CC3)cc21 [CBK265831] | 85.7
Cc1ccc(S(=O)(=O)NC2c3cccc4cccc(c34)C2Sc2nnc(N)s2)cc1 (centres unmarked) [CBK265835] | 107
O=C(CSc1ccccc1)Nc1cc(Cl)ccc1O [CBK265837] | 109
O=C1CCCN1CCCNc1ncnc2c1cnn2-c1ccc(Cl)cc1 [CBK265838] | 97.1
CCN(Cc1ccccc1)Cc1c(O)ccc2c(=O)c(-c3ccccc3OC)c(C(F)(F)F)oc12 [CBK265839] | 90
Cc1ccc(S(=O)(=O)NC2c3cccc4cccc(c34)C2Sc2ccccn2)cc1 (centres unmarked) [CBK265840] | 91.6
Cc1cc(C)c(S(=O)(=O)NCCN2CCN(S(=O)(=O)c3c(C)cc(C)cc3C)CC2)c(C)c1 [CBK265842] | 96
NC(=O)c1cc(-c2ccccc2)sc1NC(=O)C(Cc1ccccc1)N1C(=O)c2ccccc2C1=O (centres unmarked) [CBK265843] | 104
c1ccc(-c2noc(CN3CCN(C(c4ccccc4)c4ccccc4)CC3)n2)cc1 [CBK265844] | 101
CS(=O)(=O)NC1c2cccc3cccc(c23)C1N1CCOCC1 (centres unmarked) [CBK265845] | 102
Cc1ccccc1OCc1nnc(SCc2c(Cl)cccc2[N+](=O)[O-])n1C [CBK265846] | 92.4
O=C(Nc1ccc(S(=O)(=O)N2CCCC2)cc1)c1ccc(COc2ccc3c(c2)CCC3)o1 [CBK265847] | 89.1
COc1ccc(-n2ncc3c(N4CCN(C)CC4)ncnc32)cc1 [CBK265848] | 89
Cc1ccccc1OCc1nnc(SCC(=O)N2CCOCC2)n1C [CBK265850] | 96.1
CN(C)C1c2cccc3cccc(c23)C1NS(C)(=O)=O (centres unmarked) [CBK265851] | 110
NS(=O)(=O)c1ccc(CCNC2=CC(=O)CC(c3ccco3)C2)cc1 (centres unmarked) [CBK265852] | 97
Cc1ccnc(NS(=O)(=O)c2ccc(NC(=O)CSc3ccc(Cl)cc3)cc2)n1 [CBK265854] | 98.9
Cc1nn(Cc2ccc(C(=O)Nc3c(C)nn(Cc4ccc(Cl)c(Cl)c4)c3C)o2)c(C)c1Br [CBK265855] | 83.5
Cc1ccc(N(Cc2ccco2)C(=O)c2cccc(S(=O)(=O)N3CCOCC3)c2)cc1 [CBK265857] | 96.4
N#CCCSCc1ccc(C(=O)O)o1 [CBK265858] | 115
CCn1c(SCC(=O)Nc2ccccc2OC)nnc1-c1ccc(N)cc1 [CBK265859] | 111

Structure (SMILES) | viability at 28.5 h, 10 µM [%]
CCOc1ccccc1NC(=O)CNS(=O)(=O)c1ccccc1 [CBK265860] | 86.9
NC(=O)C1(N2CCCCC2)CCN(C(=S)Nc2ccc(Oc3ccccc3)cc2)CC1 [CBK265862] | 84.7
COc1ccc(NC(=O)CCN2C(=O)c3ccccc3S2(=O)=O)cc1 [CBK265863] | 87.1
O=C(O)CCC(=O)NCC1OCCc2ccccc21 (centres unmarked) [CBK265865] | 89
O=C(c1ccccc1Cl)N1CCN(c2ccc([N+](=O)[O-])c(NCc3cccnc3)c2)CC1 [CBK265866] | 108
O=C(Cc1ccc(Cl)cc1)Nc1ccc(Oc2ccc3c(c2)C(=O)NC3=O)cc1 [CBK265869] | 87.8
Cc1ccc(S(=O)(=O)NC2c3cccc4cccc(c34)C2Sc2nncn2N)cc1 (centres unmarked) [CBK265873] | 112
COc1cc(CNn2cnnc2S)ccc1OCC(N)=O [CBK265877] | 90
COc1ccc(-n2ncc3c(N4CCN(Cc5ccccc5)CC4)ncnc32)cc1 [CBK265879] | 88.8
COc1ccc(-c2cc(-c3nnc(S)n3-c3ccccc3Cl)[nH]n2)cc1 [CBK265880] | 100
NCCNc1ccc([N+](=O)[O-])c(Sc2nc3ccccc3[nH]2)c1 [CBK265882] | 106
COc1cc(NC(=S)NCCN2CCOCC2)c(OC)cc1Cl [CBK265888] | 101
CCn1cc(Br)c(C(=O)Nc2nccs2)n1 [CBK265890] | 96.8
NS(=O)(=O)c1ccc(NC(=S)N2CCN(CCO)CC2)cc1 [CBK265891] | 87.5
Cc1cc(C)c2c(n1)nn1c(C)c(CCC(=O)O)c(C)nc21 [CBK265892] | 98.2
O=C(Nc1ccc(Br)c2cccnc12)c1ccc(Cn2cc(Cl)cn2)o1 [CBK265893] | 88.2
COc1ccc(C(=O)Nc2ccccc2C(=O)Nc2cccc([N+](=O)[O-])c2)cc1 [CBK265894] | 101
NC(=O)C1(N2CCCCC2)CCN(Cc2nc(O)c3ccccc3n2)CC1 [CBK265896] | 103
O=C(Nc1ccccc1)c1ccc(COc2ccc3ccccc3c2)o1 [CBK265897] | 113
Cn1c(Cc2cccc3ccccc23)nnc1SCc1ccc([N+](=O)[O-])cc1 [CBK265898] | 93.6
